# According to patent US20110098257A1, “DERIVATIVES OF 4- OR 5-AMINOSALICYLIC ACID” (ANTIBE THERAPEUTICS INC., priority 2005, published 2011):
# Experiments:
# [1] = test system: mice having TNBS-induced colitis; assay: TNBS-induced colitis in mice (disease activity score, colonic MPO activity); format: in vivo, Balb/c mice
# Experimental: A standard experimental animal model of colitis induced by intracolonic administration of 2,4,6-trinitrobenzene sulfonic acid (TNBS) to mice is used in the following example. A detailed description of this model has been published (Santucci et al. (2003) Gastroenterology 124:1381-94) and is incorporated herein by reference. Briefly, 6-8 week old Balb/c mice were given TNBS intracolonically at a dose of 1.5 mg in 0.1 mL of 30% ethanol. The mice were randomized to the various treatment groups (n=6 per group). Beginning one hour later and continuing every 12 h for 5 days, the mice were treated orally with vehicle (1% carboxymethylcellulose (CMC)), 5-ASA (mesalamine) (25, 50 or 75 mg/kg) or with equimolar doses of 2-hydroxy-5-amino-benzoic acid 4-(thioxo-5H-[1,2]dithiol-3-yl)-phenyl ester hydrochloride (Compound XXXV) (130 mg/kg), or with […] (100 mg/kg), 50% (66 mg/kg) and 25% (33 mg/kg) of that dose. The mice were evaluated (blindly) on the final day of the study for the presence of diarrhea and fecal occult blood, and their body weights were measured. […] After sacrifice, a sample of the colon was excised for measurement of myeloperoxidase (MPO) activity, as a marker of granulocyte infiltration. All results were compared to those obtained with healthy mice as well.
# FIGS. 3 and 4 show the Disease Activity Index and MPO activity, respectively, using the same experimental animal model of colitis as described above, in which Compound XXXV (130 mg/kg) was compared to equimolar doses of its two constituents, mesalamine (50 mg/kg) and 5-p-hydroxyphenyl-[…] (ADT-OH) (80 mg/kg), and a mixture of mesalamine (50 mg/kg) and ADT-OH (80 mg/kg). *p<0.05 versus the vehicle-treated group. Each group consisted of at least 5 rats.
# FIGS. 6 and 7 show the Disease Activity Index and MPO, respectively, using the same experimental animal model of colitis as described above, in which Compound XXVII (100 mg/kg) was compared to equimolar doses of its two constituents, mesalamine (50 mg/kg) and 4-hydroxythiobenzamide (4-HTB) (50 mg/kg), mesalamine alone (50 mg/kg) and 4-HTB alone (50 mg/kg). *p<0.05 versus the vehicle-treated group. Each group consisted of at least 5 rats.
# (§1) The same model was used as described above. In this example, the effects of mesalamine (50 mg/kg) were compared to those of equimolar doses of Compound XXXV. In addition to measuring the severity of colitis by measuring disease activity score and MPO activity, tissues were processed for measurement of a number of genes for inflammatory cytokines and other mediators.
# COX-2 mRNA = assay: Colonic mRNA expression by RT-PCR in TNBS-induced colitis; format: in vivo, mice; details: dose equimolar to mesalamine 50 mg/kg; FIG. 13
# Experimental: as §1
# (§2) In particular, mRNA expression in mice of tumour necrosis factor-alpha (TNF-α), interferon gamma (IFN-[…]γ), colonic interleukin (IL)-1, IL-2, IL-10, IL-12 p40, RANTES, cyclooxygenase (COX)-1, COX-2, constitutive endothelial nitric oxide synthase (eNOS), and inducible NOS (iNOS) was measured as described in Wallace et al. (1999) Gastroenterology 117: 557-566, incorporated herein by reference.
# (§3) Briefly, reverse transcription-polymerase chain reaction (RT-PCR) was used to detect and quantify mRNA of the particular cytokine/chemokine/enzyme. Glyceraldehyde-3-phosphate dehydrogenase (GAPDH) was used as the “housekeeping gene” for mRNA expression (i.e., as an internal control). For each sample, the ratio of the amplification of the target gene to the amplification of GAPDH (expression of each is measured by performing densitometry on gels) was obtained. Comparisons were then made between the relative amplification (expression) of the target gene in tissues for the treatment groups in comparison to the expression in tissues from healthy controls. Thus, the data shown in FIGS. 7-14 represent the relative expression of the target gene (normalized to GAPDH expression) as a ratio to the expression in healthy controls.
# IL-10 mRNA = assay: as above; format: in vivo, mice; details: dose equimolar to mesalamine 50 mg/kg; normalized to GAPDH, ratio to healthy controls
# Experimental: as §1, §2, §3
# eNOS mRNA = assay: as above; format: in vivo, mice; details: dose equimolar to mesalamine 50 mg/kg; FIG. 14
# Experimental: as §1, §2, §3
# iNOS mRNA = assay: as above; format: in vivo, mice; details: dose equimolar to mesalamine 50 mg/kg; FIG. 14
# Experimental: as §1, §2, §3
# [2] = test system: mRNA for several pro-inflammatory cytokines and chemokines; assay: as above; format: in vivo, mice; details: dose equimolar to mesalamine 50 mg/kg; normalized to GAPDH, ratio to healthy controls
# Experimental: as §1, §2, §3
# [3] = test system: leukocyte adherence in mesenteric post-capillary venules; assay: Leukocyte adherence to the vascular endothelium in vivo (intravital microscopy, aspirin-induced); design: species or system Rats
# Experimental: Leukocyte adherence was studied using intravital microscopy, as described in detail previously (Wallace et al., (1993) Am. J. Physiol. 265: 993-998, incorporated hereto by reference). Rats were anesthetized with pentobarbital sodium (60 mg/kg i.p.) and cautery incisions were made along the abdominal region. A tracheotomy was performed to facilitate breathing. The rats were placed in a supine position, and a segment of the mesentery was exteriorized through the abdominal incision. The mesentery was carefully placed over an optically clear viewing pedestal that allowed for trans-illumination of a 2-cm^2 segment of tissue. All exposed tissue was covered with saline-soaked gauze to minimize dehydration. The temperature of the pedestal was kept at 37° C. and the mesentery was superfused with warmed bicarbonate-buffered saline (pH 7.4). An intravital microscope (Nikon L25/0.35) and a ×10 eyepiece were used to observe the mesenteric microcirculation. Post-capillary venules with diameters ranging from 20 to 40 μm were selected for the study. A video camera mounted on the microscope (Panasonic™ digital 5000) projected the image onto a monitor, and the images were recorded for playback analysis using a videocassette recorder. Images of the mesenteric microcirculation were recorded 5 minutes prior to aspirin administration (baseline), at the time of aspirin administration (time 0-5) and every 15 minutes for 60 minutes. Leukocyte adherence was blindly quantified from videotaped images of the vessels made over 5-min periods as the number of leukocytes that remained stationary along the vessel wall for 30 s or more (expressed per 100 μm venule length). Groups of rats (at least 5 in each) were pretreated with Compound XXXV (130 mg/kg), Compound XXVII (100 mg/kg), mesalamine (50 mg/kg), or vehicle 60 min prior to aspirin (or vehicle) administration. These drugs were given intragastrically. In some experiments, rats were treated with glibenclamide (10 mg/kg i.p.) or vehicle 30 min prior to administration of these compounds.
smiles,measurement,setting,value
"Nc1ccc(O)c(C(=O)Oc2ccc(-c3cc(=S)ss3)cc2)c1 [Compound XXXV, 5-Amino-2-hydroxy-benzoic acid 4-(5-thioxo-5H-[1,2]dithiol-3-yl)-phenyl ester]",Disease Activity Index,"[1]; Compound XXXV 130 mg/kg vs mesalamine 50 mg/kg, ADT-OH 80 mg/kg and their mixture, FIG. 3","almost twice as effective as either mesalamine alone, ADT-OH alone or a mixture of mesalamine and ADT-OH"
same,MPO activity (granulocyte infiltration),"[1]; Compound XXXV 130 mg/kg, FIG. 4",significantly reduced inflammation
same,"every endpoint of FIGS. 7-14 (MPO activity, disease activity score, mRNA expression)","[1]; dose equimolar to mesalamine 50 mg/kg, compared with mesalamine",superior to mesalamine in every endpoint
same,Disease Activity Score,"[1]; dose-ranging, oral every 12 h for 5 days, equimolar doses of 50 mg/kg and 75 mg/kg, compared with mesalamine, FIG. 1",superior to mesalamine in reducing the activity score
same,myeloperoxidase (MPO) activity,"[1]; dose-ranging, oral every 12 h for 5 days, highest doses tested, FIG. 2",significantly reduced (almost in half)
same,COX-2 mRNA expression,COX-2 mRNA,suppressed
same,expression of IL-10 mRNA,IL-10 mRNA,did not suppress expression of IL-10 mRNA
same,eNOS mRNA expression,eNOS mRNA,suppressed
same,iNOS mRNA expression,iNOS mRNA,suppressed
same,expression of mRNA for pro-inflammatory cytokines and chemokines,[2],suppressed expression of mRNA for several pro-inflammatory cytokines and chemokines
same,aspirin-induced leukocyte adherence with glibenclamide pretreatment,"[3]; glibenclamide 10 mg/kg i.p. 30 min prior to the compound, compound plus aspirin, FIG. 19",glibenclamide reversed the inhibitory effect
same,"aspirin-induced leukocyte adherence, final time period","[3]; minutes 60-65, Compound XXXV 130 mg/kg, Compound XXVII 100 mg/kg, FIG. 20",suppress aspirin-induced leukocyte adherence
same,"aspirin-induced leukocyte adherence, final time period, with glibenclamide pretreatment","[3]; minutes 60-65, glibenclamide 10 mg/kg i.p., FIG. 20",glibenclamide pretreatment to reverse this inhibitor effect
same,aspirin-induced increase in leukocyte adherence,"[3]; pretreatment: Compound XXXV 130 mg/kg or mesalamine 50 mg/kg intragastrically 60 min prior to aspirin, glibenclamide 10 mg/kg i.p., FIG. 19",prevented the aspirin-induced increase in leukocyte adherence
